According to PubChem BioAssay (NCI):
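A five-concentration, 48-hour dose response in 96-well plates underlies each endpoint, interpolated linearly between surrounding concentrations. TGI: concentration producing complete growth inhibition.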

Assays:
Test in all cases: NCI-60 cell line screen, 48 h
MDA-N = tested on: MDA-N
A498 renal = tested on: A498 renal
NCI/ADR-RES ovarian = tested on: NCI/ADR-RES ovarian
CCRF-CEM leukemia = tested on: CCRF-CEM leukemia
NCI-H23 lung = tested on: NCI-H23 lung
SN12C renal = tested on: SN12C renal
UACC-257 melanoma = tested on: UACC-257 melanoma
CAKI-1 renal = tested on: CAKI-1 renal
NCI-H460 lung = tested on: NCI-H460 lung
K-562 leukemia = tested on: K-562 leukemia
HOP-62 NSCLC = tested on: HOP-62 NSCLC
SF-268 CNS = tested on: SF-268 CNS
IGROV1 ovarian = tested on: IGROV1 ovarian
OVCAR-8 ovarian = tested on: OVCAR-8 ovarian
LOX IMVI melanoma = tested on: LOX IMVI melanoma
HCC-2998 colon = tested on: HCC-2998 colon
RXF 393 renal = tested on: RXF 393 renal
DU-145 prostate = tested on: DU-145 prostate

Measured: TGI

N#CC(C#N)=c1c2ccccc2c(=C(C#N)C#N)c2ccccc12
43.7 µM: NCI-H23 lung
42.7 µM: OVCAR-8 ovarian
30.7 µM: SN12C renal
28.6 µM: CAKI-1 renal
51.2 µM: UACC-257 melanoma
72.4 µM: NCI/ADR-RES ovarian
63.6 µM: NCI-H460 lung
40.5 µM: HOP-62 NSCLC | LOX IMVI melanoma
77.5 µM: SF-268 CNS
41.5 µM: MDA-N
50.9 µM: CCRF-CEM leukemia
> 100 µM: K-562 leukemia
30.2 µM: IGROV1 ovarian
54.9 µM: A498 renal

O=C1c2ccccc2C(=O)c2c(NC(=O)C3CC3)ccc(NC(=O)C3CC3)c21
not listed: CCRF-CEM leukemia | CAKI-1 renal | SF-268 CNS | RXF 393 renal | DU-145 prostate
> 100 µM: all other assays above

COC1=C2CC(C)CC(OC)C(OC(=O)CN)[C@H](C)/C=C(\C)C(OC(N)=O)C(OC)/C=C\C=C(/C)C(=O)NC(=CC1=O)C2=O (some centres undefined)
7.81 µM: HCC-2998 colon
20.9 µM: NCI-H460 lung
27.8 µM: NCI/ADR-RES ovarian
1.02 µM: UACC-257 melanoma
> 100 µM: K-562 leukemia
17 µM: CAKI-1 renal
6.02 µM: HOP-62 NSCLC
8.21 µM: RXF 393 renal
1.77 µM: NCI-H23 lung
3.34 µM: MDA-N
16.4 µM: DU-145 prostate | SF-268 CNS
1.62 µM: IGROV1 ovarian
0.828 µM: LOX IMVI melanoma
4.24 µM: OVCAR-8 ovarian
24.7 µM: A498 renal
4.91 µM: SN12C renal

O=C(O)CCCNc1ncc2c(n1)-c1ccccc1OC2
not listed: A498 renal | HCC-2998 colon
> 100 µM: all other assays above

CO[C@@]12C[C@@H](C)[C@]34O[C@H]3C[C@]3(C)O[C@]43CC1=C(C)C(=O)O2
not listed: CCRF-CEM leukemia | HOP-62 NSCLC | RXF 393 renal
> 100 µM: all other assays above

COc1ccc(N=Nc2ccc3oc(=O)c(C(=O)Nc4ccccc4C)cc3c2)cc1
not listed: CCRF-CEM leukemia | K-562 leukemia
> 10 µM: all other assays above

CCC/C(Cl)=N/OC(NC(=O)OCC)(C(F)(F)F)C(F)(F)F
35.4 µM: LOX IMVI melanoma
35.6 µM: CAKI-1 renal
87.9 µM: CCRF-CEM leukemia
33.6 µM: RXF 393 renal
30.9 µM: IGROV1 ovarian
32.6 µM: SN12C renal
61.4 µM: NCI-H23 lung
62.6 µM: K-562 leukemia
35.9 µM: MDA-N
36.6 µM: SF-268 CNS
37.7 µM: UACC-257 melanoma
not listed: HCC-2998 colon
> 100 µM: all other assays above

Nc1cc2ncnn2c(SCC(=O)N/N=C/C(Br)=C\c2ccccc2)n1
25.3 µM: UACC-257 melanoma
40.6 µM: HCC-2998 colon
24.6 µM: IGROV1 ovarian
87.2 µM: HOP-62 NSCLC
53.5 µM: NCI-H460 lung
42.2 µM: RXF 393 renal
52.3 µM: OVCAR-8 ovarian
48.4 µM: SN12C renal
37.2 µM: CAKI-1 renal
45.6 µM: LOX IMVI melanoma
91.8 µM: NCI/ADR-RES ovarian
> 100 µM: CCRF-CEM leukemia | K-562 leukemia
31.6 µM: MDA-N
33.1 µM: NCI-H23 lung

CCOC(=O)CSC1NC(C(=O)OC)CC1OC (centres undefined)
not listed: SN12C renal | LOX IMVI melanoma
> 100 µM: all other assays above

C=CCOCn1cc(F)c(=O)[nH]c1=O
not listed: NCI/ADR-RES ovarian | RXF 393 renal
> 100 µM: all other assays above

CS(=O)(=O)OCCCSCCSCCCOS(C)(=O)=O
not listed: A498 renal | CAKI-1 renal | RXF 393 renal
> 100 µM: all other assays above

CC(C)OC(=O)[C@H]1ON2O[C@H](O[C@@H]3CCCC[C@H]3c3ccccc3)C([Si](C)(C)c3ccccc3)[C@H]3OC(=O)[C@@H]1C32 (some centres undefined)
not listed: MDA-N
> 100 µM: all other assays above

Cc1cc(S(=O)(=O)Nc2nnc3ccccn23)c(S)cc1Cl
not listed: CCRF-CEM leukemia | CAKI-1 renal | SF-268 CNS | RXF 393 renal
> 100 µM: all other assays above

CCc1c(CNC2=NCCN2)c(CC)c(CNC2=NCCN2)c(CC)c1CNC1=NCCN1
not listed: LOX IMVI melanoma
> 100 µM: all other assays above
